Results reported in patent US9353101B2 (Merck Sharp & Dohme Corp., priority 2012, dated 2016).

These molecules were tested against CETP (Homo sapiens (Human), UniProt P11597) (assay: In vitro radioactive assay of CETP-catalyzed CE and TG transfer (RTA assay), 95% human serum). Details: RTA assay in 95% human serum; read-out: RTA IC50 (CETP Inhibition).
Type: biochemical
Description: In Vitro Radioactive Assays of CETP-Catalyzed CE and TG Transfer (RTA Assay)
Reagents and sources are: [3H] cholesteryl oleate (GE #TRK.886), [3H] Triolein (Perkin-Elmer NET-431), Butylated hydroxyl toluene (Aldrich, #D4740-4), DOPC (Sigma, # P6354), Sodium Bromide (Fisher scientific #S255-500), PEG 8000 (Fisher, #BP233-1), and human HDL (Intracel Corp #RP-036).
An in vitro assay for determining IC50's to identify compounds that inhibit CETP transfer activity is performed based on a modification of a published method (Morton and Zilversmit, (1981) A plasma inhibitor of triglyceride and cholesteryl ester transfer activities, J. Biol. Chem. 256(23), 11992-11995). The ability of inhibitors to alter CETP activity is performed using two different assays: one using recombinant CETP and one using an endogenous plasma source of CETP. Both assays measure the transfer of [3H] cholesteryl oleate or [3H] triolein from exogenous LDL to HDL.
Radiolabeled donor particles are generated by first combining 100 μl of 200 μM butylated hydroxyl toluene in CHCl3, 216 μL of 21.57 mM DOPC in EtOH, and either 500 μCi [3H]-triolein (Perkin Elmer #NET-431) or 500 μCi [3H]-cholesteryl oleate (GE #TRK886) in a glass tube. Reagents are mixed, dried under nitrogen, and then resuspended in 2 mL of 50 mM Tris, 27 μM EDTA at pH 7.4. After a brief vortex, the solution is sonicated until clear and mixed with 20 mL of fresh human serum. The mixture is incubated overnight at 37° C. The [3H] labeled LDL substrate is separated at 1.063 g/ml density by sequential ultracentrifugal flotation in NaBr according to the method by (Havel, Eder et al. 1955; Chapman, Goldstein et al. 1981). Once isolated the particles are dialyzed 3× in CETP buffer (50 mM Tris, pH 7.4, 100 mM NaCl, 1 mM EDTA). Human HDL is purchased from Intracel and used as the acceptor particles.
Transfer assays are performed in a 96 or 384-well v-bottom polypropylene plate. For the RTA using recombinant CETP (2% RTA), an assay cocktail is prepared with the final concentrations 128 μg/mL HDL, 20 nM rCETP, 2% human serum, and 1×CETP buffer. 1 μL of each test compound diluted in DMSO is added to 47 μL of assay cocktail per well and incubated at 37° C. for 1 hour. To initiate the transfer reaction, 2 μL radiolabeled LDL is added. After an additional 60 min of incubation at 37° C., the transfer action is terminated by precipitation of LDL with an equal volume of 20% W/V PEG 8000. The plates are centrifuged at 2000 rpm for 30 minutes at 4° C. A 40 μL aliquot of the HDL-containing supernatant is transferred to a Packard Optiplate™ with 200 μL of MicroScint™ 20. After mixing, plates are counted by liquid scintillation. Counts present in the supernatant for blanks (wells containing only HDL acceptor, CETP buffer and DMSO) are subtracted from those containing test compounds and used to correct for non-specific transfer.
For the transfer assay using endogenous CETP from serum (95% RTA), the same procedure is used except that human serum is added such that a final concentration of serum of 95% of the total assay volume is achieved, yielding a concentration of approximately 15 nM endogenous CETP in the assay. This is then combined with HDL and CETP buffer and the reaction proceeds as above and is terminated as described.
Comparison of the counts of samples with inhibitors to an uninhibited (DMSO only) positive control yield a percent inhibition. A plot of percent inhibition vs. log of inhibitor concentration, fit to a Sigmoidal 4 parameter equation is used to calculate IC50.
Starting materials are commercially available or are made using known procedures or as shown below. The examples may be synthesized using the general schemes provided below. The data reported for the examples below were obtained using the RTA assay in 95% human serum.

Chain of CETP (P11597 18-493 limits assumed): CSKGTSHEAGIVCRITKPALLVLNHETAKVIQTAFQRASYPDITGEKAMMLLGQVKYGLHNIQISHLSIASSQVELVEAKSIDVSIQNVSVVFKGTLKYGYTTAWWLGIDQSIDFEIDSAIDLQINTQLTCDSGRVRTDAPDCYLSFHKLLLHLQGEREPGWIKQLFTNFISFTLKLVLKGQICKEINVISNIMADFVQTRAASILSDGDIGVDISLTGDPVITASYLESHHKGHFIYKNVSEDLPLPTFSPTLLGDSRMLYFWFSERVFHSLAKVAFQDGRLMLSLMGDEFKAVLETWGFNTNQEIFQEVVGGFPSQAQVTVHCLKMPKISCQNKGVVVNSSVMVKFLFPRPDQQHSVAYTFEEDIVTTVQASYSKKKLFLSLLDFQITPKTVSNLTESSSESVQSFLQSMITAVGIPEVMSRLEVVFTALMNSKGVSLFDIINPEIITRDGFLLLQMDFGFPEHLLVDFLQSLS

Row | Compound | IC50 [nM]
1 | COc1ncc(-c2ccc(C(=O)O)cc2C)cc1-c1cnc(N2CC(F)(F)C2)nc1CN1C(=O)O[C@H](c2cc(F)cc(C(F)(F)F)c2)[C@@H]1C [Example 47, 4-{5-[2-(3,3-Difluoroazetidin-1-yl)-4-({(4S,5R)-5-[3-fluoro-5-(trifluoromethyl)phenyl]-4-methyl-2-oxo-1,3-oxazolidin-3-yl}methyl)pyrimidin-5-yl]-6-methoxypyridin-3-yl}-3-methylbenzoic acid] | 9
2 | Cc1cc(C(=O)O)ccc1-c1nc(C)c(-c2cnc(N3CC(F)C3)nc2CN2C(=O)O[C@H](c3cc(C(F)(F)F)cc(C(F)(F)F)c3)[C@@H]2C)s1 [Example 51, 4-{5-[4-({(4S,5R)-5-[3,5-Bis(trifluoromethyl)phenyl]-4-methyl-2-oxo-1,3-oxazolidin-3-yl}methyl)-2-(3-fluoroazetidin-1-yl)pyrimidin-5-yl]-4-methyl-1,3-thiazol-2-yl}-3-methylbenzoic acid] | 33
3 | COc1ncc(-c2c(C)cc(-c3n[nH]c(=O)o3)cc2C)cc1-c1cnc(N2CC(F)C2)nc1CN1C(=O)O[C@H](c2cc(C(F)(F)F)cc(C(F)(F)F)c2)[C@@H]1C [Example 33, 5-(4-{5-[4-({(4S,5R)-5-[3,5-Bis(trifluoromethyl)phenyl]-4-methyl-2-oxo-1,3-oxazolidin-3-yl}methyl)-2-(3-fluoroazetidin-1-yl)pyrimidin-5-yl]-6-methoxypyridin-3-yl}-3,5-dimethylphenyl)-1,3,4-oxadiazol-2(3H)-one] | 8
4 | COc1ncc(-c2ccc(C(=O)O)cc2C)cc1-c1cnc(N2CC(F)C2)nc1CN1C(=O)O[C@H](c2cccc(OC(F)(F)F)c2)[C@@H]1C [Example 45, 4-{5-[2-(3-Fluoroazetidin-1-yl)-4-({(4S,5R)-4-methyl-2-oxo-5-[3-(trifluoromethoxy)phenyl]-1,3-oxazolidin-3-yl}methyl)pyrimidin-5-yl]-6-methoxypyridin-3-yl}-3-methylbenzoic acid] | 50
5 | COc1ncc(-c2c(C)cc(C(=O)O)cc2C)cc1-c1ccc(N2CC(F)(F)C2)nc1CN1C(=O)O[C@H](c2cc(C(F)(F)F)cc(C(F)(F)F)c2)[C@@H]1C [Example 58] | 7
6 | Cc1cc(C(=O)O)ccc1-c1nc(C(C)(C)C)c(-c2cnc(N3CC(F)(F)C3)nc2CN2C(=O)O[C@H](c3cc(C(F)(F)F)cc(C(F)(F)F)c3)[C@@H]2C)s1 [Example 49, 4-{5-[4-({(4S,5R)-5-[3,5-Bis(trifluoromethyl)phenyl]-4-methyl-2-oxo-1,3-oxazolidin-3-yl}methyl)-2-(3,3-difluoroazetidin-1-yl)pyrimidin-5-yl]-4-tert-butyl-1,3-thiazol-2-yl}-3-methylbenzoic acid] | 800
7 | CCCn1nc(C)c(-c2cnc(OC)c(-c3cnc(N4CC(F)C4)nc3CN3C(=O)O[C@H](c4cc(C(F)(F)F)cc(C(F)(F)F)c4)[C@@H]3C)c2)c1C [Example 18, (4S,5R)-5-[3,5-Bis(trifluoromethyl)phenyl]-3-({5-[5-(3,5-dimethyl-1-propyl-1H-pyrazol-4-yl)-2-methoxypyridin-3-yl]-2-(3-fluoroazetidin-1-yl)pyrimidin-4-yl}methyl)-4-methyl-1,3-oxazolidin-2-one] | 12
8 | COc1ncc(-c2c(C)n[nH]c2C)cc1-c1cnc(N2CCOCC2)nc1CN1C(=O)O[C@H](c2cc(C(F)(F)F)cc(C(F)(F)F)c2)[C@@H]1C [Example 26] | 23
9 | COc1ncc(-c2c(C)cc(C(=O)OC(C)(C)C)cc2C)cc1-c1ccc(N2CC(F)(F)C2)nc1CN1C(=O)O[C@H](c2cc(C(F)(F)F)cc(C(F)(F)F)c2)[C@@H]1C [Example 57] | 5
10 | COc1ncc(-c2c(C)noc2C)cc1-c1cnc(N2CC(F)C2)nc1CN1C(=O)O[C@H](c2cc(C(F)(F)F)cc(C(F)(F)F)c2)[C@@H]1C [Example 7] | 3
11 | COc1ncc(-c2c(C)n[nH]c2C)cc1-c1cnc(N2CC(O)C2)nc1CN1C(=O)O[C@H](c2cc(C(F)(F)F)cc(C(F)(F)F)c2)[C@@H]1C [Example 24] | 332
12 | COc1ncc(-c2sc(C)nc2C)cc1-c1cnc(N2CC(F)C2)nc1CN1C(=O)O[C@H](c2cc(C(F)(F)F)cc(C(F)(F)F)c2)[C@@H]1C [Example 3, (4S,5R)-5-[3,5-Bis(trifluoromethyl)phenyl]-3-({5-[5-(2,4-dimethyl-1,3-thiazol-5-yl)-2-methoxypyridin-3-yl]-2-(3-fluoroazetidin-1-yl)pyrimidin-4-yl}methyl)-4-methyl-1,3-oxazolidin-2-one] | 3
13 | COc1ncc(-c2ccc(C(=O)OC(C)(C)C)cc2C)cc1-c1ccc(N2CCOCC2)nc1CN1C(=O)O[C@H](c2cc(C(F)(F)F)cc(C(F)(F)F)c2)[C@@H]1C [Example 55] | 22
14 | COc1ncc(C(C)C)cc1-c1cnc(N2CCC[C@@H]2C)nc1CN1C(=O)O[C@H](c2cc(C(F)(F)F)cc(C(F)(F)F)c2)[C@@H]1C [Example 30] | 18
15 | CCOc1ncc(C(F)(F)F)cc1-c1cnc(N2CC(F)C2)nc1CN1C(=O)O[C@H](c2cc(C(F)(F)F)cc(C(F)(F)F)c2)[C@@H]1C [Example 10] | 12
16 | COc1ncc(-c2c(C)cc(-c3n[nH]c(=O)o3)cc2C)cc1-c1cnc(N2CCOCC2)nc1CN1C(=O)O[C@H](c2cc(C(F)(F)F)cc(C(F)(F)F)c2)[C@@H]1C [Example 35, 5-(4-{5-[4-({(4S,5R)-5-[3,5-Bis(trifluoromethyl)phenyl]-4-methyl-2-oxo-1,3-oxazolidin-3-yl}methyl)-2-(morpholin-4-yl)pyrimidin-5-yl]-6-methoxypyridin-3-yl}-3,5-dimethylphenyl)-1,3,4-oxadiazol-2(3H)-one] | 10
17 | COc1ncc(C(C)C)cc1-c1cnc(N2CC(F)C2)nc1CN1C(=O)O[C@H](c2cc(F)cc(F)c2)[C@@H]1C [Example 14, (4S,5R)-5-(3,5-Difluorophenyl)-3-{[2-(3-fluoroazetidin-1-yl)-5-(5-isopropyl-2-methoxypyridin-3-yl)pyrimidin-4-yl]methyl}-4-methyl-1,3-oxazolidin-2-one] | 16
18 | COc1ncc(-c2ccc(C(=O)O)cc2C)cc1-c1ccc(N2CC(F)(F)C2)nc1CN1C(=O)O[C@H](c2cc(C(F)(F)F)cc(C(F)(F)F)c2)[C@@H]1C [Example 60] | 5
19 | Cc1cc(C(=O)O)ccc1-c1nc(C(C)(C)C)c(-c2cnc(N3CC(F)C3)nc2CN2C(=O)O[C@H](c3cc(C(F)(F)F)cc(C(F)(F)F)c3)[C@@H]2C)s1 [Example 50, 4-{5-[4-({(4S,5R)-5-[3,5-Bis(trifluoromethyl)phenyl]-4-methyl-2-oxo-1,3-oxazolidin-3-yl}methyl)-2-(3-fluoroazetidin-1-yl)pyrimidin-5-yl]-4-tert-butyl-1,3-thiazol-2-yl}-3-methylbenzoic acid] | 197
20 | COc1ncc(-c2ccc(C(=O)O)cc2C)cc1-c1cnc(N2CC(F)C2)nc1CN1C(=O)O[C@H](c2cc(C(F)(F)F)cc(C(F)(F)F)c2)[C@@H]1C [Example 36, 4-{5-[4-({(4S,5R)-5-[3,5-Bis(trifluoromethyl)phenyl]-4-methyl-2-oxo-1,3-oxazolidin-3-yl}methyl)-2-(3-fluoroazetidin-1-yl)pyrimidin-5-yl]-6-methoxypyridin-3-yl}-3-methylbenzoic acid] | 12
21 | Cc1noc(C)c1-c1cnc(N2CCC2)nc1CN1C(=O)O[C@H](c2cc(C(F)(F)F)cc(C(F)(F)F)c2)[C@@H]1C [Example 64, (4S,5R)-3-{[2-(azetidin-1-yl)-5-(3,5-dimethylisoxazol-4-yl)pyrimidin-4-yl]methyl}-5-[3,5-bis(trifluoromethyl)phenyl]-4-methyl-1,3-oxazolidin-2-one] | 271
